Experimental data reported in US5789439A, “Pharmaceutical use of forskolin derivatives” (Nippon Kayaku Kabushiki Kaisha, priority 1990, dated 1998).
Structures can show the parent of a compound that is named as a salt.

Key:
[1] = tested on: collagen-induced aggregation of rabbit blood thrombocyte; assay: Collagen-induced platelet aggregation inhibition, rabbit platelet rich plasma; assay type: cell-based
Protocol: The platelet aggregation inhibitory action of NKH-477 was examined on collagen-induced aggregation and ADP-induced aggregation of rabbit blood thrombocyte. The male Japanese white rabbits (body weight: 2.4-2.8 kg, procured from Tokyo Experimental Animals Co., Ltd.) were divided into groups of 5. The rabbits were etherized and blood was collected from the carotid artery of each rabbit. A 3.8% sodium citrate solution (final concentration: 0.38%) was added to a portion of blood collected from each group of rabbits to obtain platelet rich plasma (PRP). The remaining portion of blood was centrifuged at 3,000 r.p.m. for 15 minutes to obtain platelet poor plasma (PPP). First, permeability of PRP and PPP was determined by using an aggregometer (RMA-31 mfd. by Rika Denki Kogyo K. K.) and set at 0% and 100%, respectively. Separately from the above operation, 250 μl of PRP was placed in a cuvette and after preliminary heating at 37° C. for 2 minutes, 20 μl of specimen was added and incubated under stirring for 2 minutes. Then 10 μl of ADP (Sigma, final conc.: 3×10^-6 M) or collagen (Hormon-Chemie, final conc.: 10 μg/ml) was added and the transmission rate was measured. The maximum transmission rate observed in this operation was termed as the maximum aggregation rate. Recording in this operation was conducted on an ink-written recorder (B-381L mfd. by Rika Denki Kogyo K. K.). NKH-477 was dissolved in a physiological saline to make concentrations of 10^-8 to 10^-5 M. Forskolin dissolved in ethanol was used as control.

[2] = tested on: canine basilar artery; assay: Spasmolytic effect on KCl-induced contraction, canine basilar artery ring; conditions: for Inhibition rate, Basilar artery: 35 mM KCl, papaverine 10^-4 M = 100%, mean ± SE, n = 3
Protocol: The canine coronary and basilar arteries were extirpated under anesthesia with pentobarbital to prepare the 3 mm wide ring preparation. Each preparation was suspended in a 10-ml organ bath filled with a Krebs-Henseleit solution by applying a static tension of 1.5 g (for the coronary artery) and 1.0 g (for the basilar artery). The nutrient solution was maintained at 37° C. and aerated with a 95% 02 /5% CO2 gas. The isometric mascular tension was measured with an FD pickup (TB-611T mfd. by Nihon Kohden K. K.) and recorded on a recorder (TI-104 mfd. by Tokai IRIKA K. K.).
After about 2 hours of equilibrium time, contraction was induced with 30 mM of KCl (for coronary artery) and 35 mM of KCl (for basilar artery), and after contraction was stabilized, NKH-477 was administered cumulatively. The spasmolytic effect was expressed as percentages of the inhibition, with the maximal inhibition obtained with papaverine hydrochloride (10^-4 M) being supposed to have shown 100% inhibition.

[3] = tested on: total peripheral vascular resistance; assay: Effect on peripheral vascular resistance in human; assay type: in vivo; conditions: i.v. 0.4 μg/kg/min, 40 minutes from start; four healthy adults; saline 1.7%
Protocol: (3) Effect on peripheral vascular resistance in human was examined.
A freeze-dried preparation comprising NKH-477 was dissolved in a physiological saline and continuously administered intravenously to four healthy adults at a rate of 0.4 μg/kg/min for one hour.
The rate of reduction of total peripheral vascular resistance after 40 minutes from the start of administration was determined for each subject from mean blood pressure and cardiac output calculated from Ultrasonic cardiography (UCG).

[4] = tested on: collagen-induced aggregation; assay: Collagen-induced aggregation after intravenous administration to healthy adults; assay type: in vivo, healthy adults (human); conditions: i.v. 0.8 μg/kg/min for one hour, mean of four subjects
Protocol: (§1) A freeze-dried preparation comprising NKH-477 was dissolved in a physiological saline and administered intravenously to four healthy adults at a rate of 0.8 μg/kg/min for one hour. The degrees of ADP-induced aggregation, epinephrine-induced aggregation and collagen-induced aggregation upon end of administration were measured and compared with those before administration (each figure is the average of measurements on the four subjects).

[5] = tested on: ADP-induced aggregation; assay: ADP-induced aggregation after intravenous administration to healthy adults; assay type: in vivo, healthy adults (human); conditions: i.v. 0.8 μg/kg/min for one hour, mean of four subjects
Protocol: as §1

[6] = tested on: total peripheral vascular resistance; assay: Effect on peripheral vascular resistance in anesthetized dogs; assay type: in vivo, dog; conditions: for Change in total peripheral vascular resistance: mean ± SE
Protocol: (2) Effect on peripheral vascular resistance in an anesthetized dogs was examined. Blood pressure was measured with a pressure transducer (CP-01 mfd. by Century Technology Co.) connected to a polyethylene tube inserted into a right femoral artery of a dog anesthetized with pentobarbital, and the cardiac output was measured according to a thermodilution method by using a dilution type cardiac output counter (MLC-4200 mfd. by Nihon Kohden K. K.) and a 7F thermodilution catheter (TC-704 mfd. by Nihon Kohden K. K.) inserted into the pulmonary artery through the right femoral vein. The total peripheral vascular resistance was determined by dividing the mean blood pressure by the cardiac output. NKH-477 was dissolved in a physiological saline and infused into a right cephalic vein at rates of 0.15, 0.3 and 0.6 μg/kg/min (flow rate: 0.2 ml/min) for 2 hours by using a continuous injection pump (Model 975C mfd. by Harvard Corp.). For the control, physiological saline was similarly infused at a rate of 0.2 ml/min.

SMILES: C=C[C@@]1(C)CC(=O)[C@]2(O)[C@@]3(C)[C@@H](O)CCC(C)(C)[C@@H]3[C@H](OC(=O)CCN(C)C)[C@H](OC(C)=O)[C@@]2(C)O1 [NKH-477, 6-(3-dimethylaminopropionyl)forskolin hydrochloride]
- IC50 ([1]; Oryctolagus cuniculus, Platelet, rabbit PRP, collagen 10 μg/ml, mean, n = 5, read-out: Platelet aggregation inhibitory action (IC50), Collagen-induced aggregation): 302 nM
- platelet aggregation inhibitory action relative to forskolin ([1]; from Table 1-1 (collagen- and ADP-induced), vs forskolin): over 10 times
- IC50 ([2]; Canis lupus familiaris, KCl-induced contraction, n=3): 102 nM
- inhibitory action against KCl-induced contraction in the basilar artery ([2]; Table 3, in words): concentration-dependent inhibitory action
- Inhibition rate, Basilar artery ([2]; line 1 of 5): 3.8 ± 2.0%
- Inhibition rate, Basilar artery ([2]; line 2 of 5): 22.1 ± 3.3%
- Inhibition rate, Basilar artery ([2]; line 3 of 5): 52.0 ± 5.3%
- Inhibition rate, Basilar artery ([2]; line 4 of 5): 78.3 ± 1.2%
- Inhibition rate, Basilar artery ([2]; line 5 of 5): 89.2 ± 0.6%
- average reduction rate of total peripheral vascular resistance [3]: 19.7%
- Collagen-induced aggregation upon end of administration ([4]; before administration 70.3%): 45.8%
- Inhibition rate, Collagen-induced aggregation [4]: 38.7%
- ADP-induced aggregation upon end of administration ([5]; before administration 68.5%): 57.5%
- Inhibition rate, ADP-induced aggregation [5]: 21.7%
- Change in total peripheral vascular resistance ([6]; 0.15 μg/kg/min, 10 min from start of infusion, control 2.1 ± 1.5): -2.7 ± 2.4%
- Change in total peripheral vascular resistance ([6]; 0.15 μg/kg/min, 30 min after cessation of infusion, control 31.4 ± 13.9): 7.4 ± 7.4%
- Change in total peripheral vascular resistance ([6]; 0.15 μg/kg/min, 30 min from start of infusion, control 4.0 ± 2.3): -6.2 ± 3.7%
- Change in total peripheral vascular resistance ([6]; 0.15 μg/kg/min, 60 min after cessation of infusion, control 29.1 ± 9.7): 15.7 ± 10.4%
- Change in total peripheral vascular resistance ([6]; 0.15 μg/kg/min, 60 min from start of infusion, control 13.8 ± 3.4): -9.1 ± 5.7%
- Change in total peripheral vascular resistance ([6]; 0.15 μg/kg/min, 120 min after cessation of infusion, control 26.8 ± 12.5): 12.8 ± 7.2%
- Change in total peripheral vascular resistance ([6]; 0.15 μg/kg/min, 120 min from start of infusion, control 20.5 ± 9.2): -5.7 ± 6.6%
- Change in total peripheral vascular resistance ([6]; 0.3 μg/kg/min, 10 min from start of infusion, control 2.1 ± 1.5): -3.7 ± 2.9%
- Change in total peripheral vascular resistance ([6]; 0.3 μg/kg/min, 30 min after cessation of infusion, control 31.4 ± 13.9): 6.7 ± 7.0%
- Change in total peripheral vascular resistance ([6]; 0.3 μg/kg/min, 30 min from start of infusion, control 4.0 ± 2.3): -10.4 ± 3.1%
- Change in total peripheral vascular resistance ([6]; 0.3 μg/kg/min, 60 min after cessation of infusion, control 29.1 ± 9.7): 17.1 ± 6.0%
- Change in total peripheral vascular resistance ([6]; 0.3 μg/kg/min, 60 min from start of infusion, control 13.8 ± 3.4): -10.2 ± 4.1%
- Change in total peripheral vascular resistance ([6]; 0.3 μg/kg/min, 120 min after cessation of infusion, control 26.8 ± 12.5): 17.2 ± 9.2%
- Change in total peripheral vascular resistance ([6]; 0.3 μg/kg/min, 120 min from start of infusion, control 20.5 ± 9.2): -11.5 ± 4.7%
- Change in total peripheral vascular resistance ([6]; 0.6 μg/kg/min, 10 min from start of infusion, control 2.1 ± 1.5): -18.3 ± 8.6%
- Change in total peripheral vascular resistance ([6]; 0.6 μg/kg/min, 30 min after cessation of infusion, control 31.4 ± 13.9): -13.4 ± 7.6%
- Change in total peripheral vascular resistance ([6]; 0.6 μg/kg/min, 30 min from start of infusion, control 4.0 ± 2.3): -28.1 ± 5.9%
- Change in total peripheral vascular resistance ([6]; 0.6 μg/kg/min, 60 min after cessation of infusion, control 29.1 ± 9.7): -4.1 ± 9.1%
- Change in total peripheral vascular resistance ([6]; 0.6 μg/kg/min, 60 min from start of infusion, control 13.8 ± 3.4): -29.0 ± 6.4%
- Change in total peripheral vascular resistance ([6]; 0.6 μg/kg/min, 120 min after cessation of infusion, control 26.8 ± 12.5): 11.8 ± 12.9%
- Change in total peripheral vascular resistance ([6]; 0.6 μg/kg/min, 120 min from start of infusion, control 20.5 ± 9.2): -28.0 ± 5.4%
- recovery of total peripheral vascular resistance ([6]; after cessation of the infusion): substantially restored in 2 hours after cessation of the infusion
- total peripheral vascular resistance, course in words ([6]; i.v. infusion 0.15-0.6 μg/kg/min for 2 hours): decreased gradually after the start of infusion
